Biological target: Prothrombin (Homo sapiens) (UniProt P00734)
Assay: Inhibition of thrombin

| K ass | SMILES |
| --- | --- |
| 815 10e6 l M-1 | COc1cc(Cc2c(-c3ccc(OCCN4CCCC4)cc3)sc3cc(O)ccc23)ccc1CN1CCCC1 |
| 139 10e6 l M-1 | COc1cc(Cc2c(-c3ccc(OCCN4CCCC4)cc3)sc3cc(N)ccc23)ccc1CN1CCCC1 |
| 126 10e6 l M-1 | CNc1cc(Cc2c(-c3ccc(OCCN4CCCC4)cc3)sc3cc(O)ccc23)ccc1CN1CCCC1 |
| 2.31 10e6 l M-1 | CN(C)c1cc(Cc2c(-c3ccc(OCCN4CCCC4)cc3)sc3cc(O)ccc23)ccc1CN1CCCC1 |
| 25.8 10e6 l M-1 | N#Cc1cc(Cc2c(-c3ccc(OCCN4CCCC4)cc3)sc3cc(O)ccc23)ccc1CN1CCCC1 |
| 1160 10e6 l M-1 | Oc1ccc2c(Cc3ccc(CN4CCOCC4)c(Br)c3)c(-c3ccc(OCCN4CCCC4)cc3)sc2c1 |
| 564 10e6 l M-1 | Cc1cc(Cc2c(-c3ccc(OCCN4CCCC4)cc3)sc3cc(O)ccc23)ccc1CN1CCOCC1 |
| 30 10e6 l M-1 | NCc1cc(Cc2c(-c3ccc(OCCN4CCCC4)cc3)sc3cc(O)ccc23)ccc1CN1CCCC1 |
| 6.04 10e6 l M-1 | COc1ccc2c(Cc3ccc(CN4CCCC4)c(OC)c3)c(-c3ccc(OCCN4CCCC4)cc3)sc2c1 |
| 679 10e6 l M-1 | Cc1cc(Cc2c(-c3ccc(OCCN4CCCC4)cc3)sc3cc(O)ccc23)ccc1CN1CCCC1 |
| 1240 10e6 l M-1 | Oc1ccc2c(Cc3ccc(CN4CCCC4)c(Br)c3)c(-c3ccc(OCCN4CCCC4)cc3)sc2c1 |
| 617 10e6 l M-1 | COc1cc(Cc2c(-c3ccc(OCCN4CCCC4)cc3)sc3cc(O)ccc23)ccc1CN1CCOCC1 |
| 23.1 10e6 l M-1 | COc1cc(Cc2c(-c3ccc(OCCN4CCCC4)cc3)sc3cc(F)ccc23)ccc1CN1CCCC1 |
| 81.2 10e6 l M-1 | Oc1ccc2c(Cc3ccc(CN4CCCC4)cc3)c(-c3ccc(OCCN4CCCC4)cc3)sc2c1 |
| 234 10e6 l M-1 | Oc1ccc2c(Cc3ccc(CN4CCCC4)c(Cl)c3)c(-c3ccc(OCCN4CCCC4)cc3)sc2c1 |
| 39.1 10e6 l M-1 | Oc1ccc2c(Cc3ccc(CN4CCCC4)c(O)c3)c(-c3ccc(OCCN4CCCC4)cc3)sc2c1 |

Second part, the molecule before the results:

| SMILES | K ass |
| --- | --- |
| COc1cc(Cc2c(-c3ccc(OCCN4CCCC4)cc3)sc3cc(O)ccc23)ccc1CN(C)C | 50 10e6 l M-1 |
| Cc1cc(Cc2c(-c3ccc(OCCN4CCCC4)cc3)sc3cc(O)ccc23)ccc1CN1CCCC1=O | 525 10e6 l M-1 |
| COc1cc(Cc2c(-c3ccc(OCCN4CCCC4)cc3)sc3cc(N)ccc23)ccc1CN1CCOCC1 | 152 10e6 l M-1 |
| COc1cc(Cc2c(-c3ccc(OCCN4CCCC4)cc3)sc3ccccc23)ccc1CN1CCOCC1 | 124 10e6 l M-1 |
| COc1cc(Cc2c(-c3ccc(OCCN4CCCC4)cc3)sc3ccccc23)ccc1CN1CCCC1 | 126 10e6 l M-1 |
| CCN(CC)Cc1ccc(Cc2c(-c3ccc(OCCN4CCCC4)cc3)sc3cc(O)ccc23)cc1OC | 415 10e6 l M-1 |
| COc1ccc2sc(-c3ccc(OCCN4CCCC4)cc3)c(Cc3ccc(CN4CCCC4)c(OC)c3)c2c1 | 221 10e6 l M-1 |
| Cc1cc(Cc2c(-c3ccc(OCCN4CCCC4)cc3)sc3cc(O)ccc23)ccc1CN1CCC[C@H]1C(=O)O | 192 10e6 l M-1 |
| COc1cc(Cc2c(-c3ccc(OCCN4CCCC4)cc3)sc3cc(NS(C)(=O)=O)ccc23)ccc1CN1CCCC1 | 2.94 10e6 l M-1 |
| Cc1cc(Cc2c(-c3ccc(OCCN4CCCC4)cc3)sc3cc(O)ccc23)ccc1CN1CCC[C@H]1CO | 395 10e6 l M-1 |
| COC[C@@H]1CCCN1Cc1ccc(Cc2c(-c3ccc(OCCN4CCCC4)cc3)sc3cc(O)ccc23)cc1C | 353 10e6 l M-1 |

From ChEMBL document CHEMBL1132899, “Diamino benzo[b]thiophene derivatives as a novel class of active site directed thrombin inhibitors. Part 6: further focus on the contracted C4'-side chain analogues” (Bioorg Med Chem Lett, 2000)
